The subject of this series is CCRIS mutagenicity, Ames/micronucleus/aberration tests. Briefly: CCRIS mutagenicity studies. To be noted: Test System: AMES SALMONELLA TYPHIMURIUM, Method: STANDARD PLATE.

Calls of active or inactive are those of the source. The rule behind the calls is not given here.

With `O=[N+]([O-])c1cccc2[nH]c3ccccc3c12`, the mutagenic call (Strain/Indicator: TA98, Metabolic Activation: NONE) is “active; positive”; the mutagenic call (Strain/Indicator: TA98, Metabolic Activation: RAT, LIVER, S-9, PHENOBARBITAL) was “active; positive”; the mutagenic call (Strain/Indicator: TA1537, Metabolic Activation: NONE) was “inactive; negative”; the mutagenic call (Strain/Indicator: TA1537, Metabolic Activation: RAT, LIVER, S-9, PHENOBARBITAL) was “inactive; negative”; the mutagenic call (Strain/Indicator: TA1538, Metabolic Activation: NONE) was “active; positive”; the mutagenic call (Strain/Indicator: TA1538, Metabolic Activation: RAT, LIVER, S-9, PHENOBARBITAL) was “active; positive”. The mutagenic call reads like this: (Strain/Indicator: TA1977, Metabolic Activation: NONE) “inactive; negative”; (Strain/Indicator: TA1977, Metabolic Activation: RAT, LIVER, S-9, PHENOBARBITAL) “inactive; negative”.
